Results as given in patent US12172989B2, “Histone acetyltransferase (HAT) inhibitor and use thereof” (SHANGHAI INSTITUTE OF MATERIA MEDICA, CHINESE ACADEMY OF …, priority 2018, dated 2024).

Target: T1, histone acetyltransferase p300 (Homo sapiens, UniProt Q09472)
T1 construct: purchased BPS Corporation 50071
T1 sequence (Q09472 1284-1673 limits assumed): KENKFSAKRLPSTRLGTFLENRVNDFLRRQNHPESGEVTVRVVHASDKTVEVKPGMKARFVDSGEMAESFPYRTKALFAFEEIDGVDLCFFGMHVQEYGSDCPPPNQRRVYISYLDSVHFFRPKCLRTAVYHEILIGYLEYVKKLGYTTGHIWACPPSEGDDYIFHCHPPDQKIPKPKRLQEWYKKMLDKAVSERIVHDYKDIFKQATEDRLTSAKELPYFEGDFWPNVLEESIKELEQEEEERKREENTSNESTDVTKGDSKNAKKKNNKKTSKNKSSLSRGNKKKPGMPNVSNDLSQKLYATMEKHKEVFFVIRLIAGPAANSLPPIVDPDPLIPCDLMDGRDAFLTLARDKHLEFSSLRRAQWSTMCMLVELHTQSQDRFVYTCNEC
Test: Histone acetyltransferase (p300) activity assay (radioisotope, [3H]-Ac-CoA)
Format: biochemical
Conditions: p300 0.05 nM; histone peptide 600 nM, [3H]-Ac-CoA 250 nM; 60 min at room temperature; read-out: Inhibition rate IC50
Method: The reaction was finally terminated with Ac-CoA (Sigma, Cat. No. A2056) without isotope labeling. If the activity of the acetyltransferase p300 was inhibited, the isotope signal cannot be detected on the substrate polypeptide. Therefore, the inhibitory activity of the compound against the acetyltransferase p300 was evaluated.
In the enzyme reaction system, 200 nL of a diluted compound (100% DMSO) was first transferred to a test plate using Echo, where the final concentration of the compound in the enzyme reaction system ranges from 0.25 to 5000 nM. Then 10 μL/well of p300 protein (final concentration of 0.05 nM) was transferred therein, and incubated with the compound for 15 min at room temperature. Then 10 μL/well of a substrate mixture (final concentrations of histone peptide and [^3H]—Ac-CoA were 600 nM and 250 nM, respectively) was added to start the enzyme-catalyzed reaction, and incubated at room temperature for 60 min. Then 10 µL/well of a 250 μM cold Ac-CoA solution was added to stop the reaction. Finally 25 μL/well of the reaction solution was transferred to a 384-well Flashplate (Perkin Elmer, Cat. No. SMP410A001PK), and incubated at room temperature for 1 h. The resultant was washed with double distilled water+0.1% Tween-20 three times. The signal value was read by using Microbeta. The data was analyzed by using GraphPad Prism 5.0 software to obtain IC50.

Row | IC50 [nM] | Compound
1 | 1.58 | CNC(=O)Nc1ccc2c(c1)CC[C@@]21OC(=O)N(CC(=O)N2Cc3cc(F)c(F)cc3CC[C@H]2C2CC2)C1=O [SYY-B090-2]
2 | 16.8 | CNC(=O)Nc1ccc2c(c1)CC[C@@]21OC(=O)N(CC(=O)N2Cc3sccc3OC[C@H]2C2CC2)C1=O [SYY-B100-2]
3 | 1.37 | CNC(=O)Nc1ccc2c(c1)CC[C@]21OC(=O)N(CC(=O)N2Cc3cc(F)c(F)cc3CC[C@H]2C2CC2)C1=O [SYY-B090-1]
4 | < 50 | CNC(=O)Nc1ccc2c(c1)CCC21NC(=O)N(CC(=O)N2Cc3sccc3OC[C@H]2C(F)(F)F)C1=O (some centres unmarked) [SYY-B142]
5 | < 10 | Cn1cc(-c2ccc3c(c2)C(F)C[C@]32NC(=O)N(CC(=O)N3Cc4cc(F)ccc4OC[C@H]3C3CC3)C2=O)cn1 (some centres unmarked) [SYY-B132-2]
6 | < 10 | CNC(=O)Nc1ccc2c(c1)COCC21OC(=O)N(CC(=O)N2Cc3cc(F)ccc3OC[C@H]2C2CC2)C1=O (some centres unmarked) [SYY-B112]
7 | 13.9 | CNC(=O)Nc1ccc2c(c1)CC[C@]21OC(=O)N(CC(=O)N2Cc3ccsc3CC[C@H]2C2CC2)C1=O [SYY-B102-1]
8 | < 20 | CNC(=O)Nc1ccc2c(c1)CCC21NC(=O)N(CC(=O)N2Cc3sccc3CC[C@H]2C2CC2)C1=O (some centres unmarked) [SYY-B124]
9 | 1100 | CNC(=O)Nc1ccc2c(c1)CC[C@]21OC(=O)N(CC(=O)N2Cc3ccccc3CC[C@@H]2C(F)(F)F)C1=O [SYY-B028-1]
10 | 7.4 | CNC(=O)Nc1ccc2c(c1)CC[C@@]21OC(=O)N(CC(=O)N2Cc3ncccc3CC[C@H]2C2CC2)C1=O [SYY-B096-2]
11 | 140 | CNC(=O)Nc1ccc2c(c1)CC[C@]21OC(=O)N(CC(=O)N2Cc3sc(C)c(C)c3CC[C@H]2C2CC2)C1=O [SYY-B116-1]
12 | > 100 | CC(C)(N)C(=O)Nc1ccc2c(c1)CC[C@@]21OC(=O)N(CC(=O)N2Cc3ccc(F)cc3CC[C@@H]2C2CC2)C1=O [SYY-B038-2]
13 | > 50 | CNC(=O)Cn1cc(-c2ccc3c(c2)CCC32NC(=O)N(CC(=O)N3Cc4ccc(F)cc4CC[C@@H]3C3CC3)C2=O)cn1 (some centres unmarked) [SYY-B046]
14 | 54 | CNC(=O)Nc1ccc2c(c1)CC[C@]21OC(=O)N(CC(=O)N2Cc3ccc(F)cc3CC[C@@H]2C)C1=O [SYY-B022-1]
15 | 160 | NC1(C(=O)Nc2ccc3c(c2)CC[C@@]32OC(=O)N(CC(=O)N3Cc4ccc(F)cc4CC[C@@H]3C3CC3)C2=O)CCC1 [SYY-B040-2]
16 | < 10 | Cn1cc(-c2ccc3c(c2)OCC32NC(=O)N(CC(=O)N3Cc4cc(F)ccc4OC[C@H]3C3CC3)C2=O)cn1 (some centres unmarked) [SYY-B110]
17 | 270 | CNC(=O)Nc1ccc2c(c1)CC[C@@]21OC(=O)N(CC(=O)N2Cc3ccccc3CC[C@@H]2C2CC2)C1=O [SYY-B017-2]
18 | 130 | NC1(C(=O)Nc2ccc3c(c2)CC[C@]32OC(=O)N(CC(=O)N3Cc4ccc(F)cc4CC[C@@H]3C3CC3)C2=O)CCC1 [SYY-B040-1]
19 | < 20 | Cn1cc(-c2ccc3c(c2)C(O)C[C@]32NC(=O)N(CC(=O)N3Cc4cc(F)ccc4OC[C@H]3C3CC3)C2=O)cn1 (some centres unmarked) [SYY-B170-2]

Row | IC50 [nM] | Compound
20 | 47 | CCC[C@H]1CCc2ccccc2CN1C(=O)CN1C(=O)O[C@]2(CCc3cc(NC(=O)NC)ccc32)C1=O [SYY-B024-1]
21 | 11.7 | CNC(=O)Nc1ccc2c(c1)CC[C@]21OC(=O)N(CC(=O)N2Cc3ncccc3CC[C@H]2C2CC2)C1=O [SYY-B095-1]
22 | < 50 | CNC(=O)Nc1ccc2c(c1)CCC21NC(=O)N(CC(=O)N2Cc3sccc3OC[C@H]2C2CC2)C1=O (some centres unmarked) [SYY-B108]
23 | 45 | CNC(=O)Nc1ccc2c(c1)CC[C@@]21OC(=O)N(CC(=O)N2Cc3ccccc3CC[C@@H]2C(C)C)C1=O [SYY-B020-2]
24 | < 10 | CNC(=O)Nc1ccc2c(c1)CC[C@]21OC(=O)N(CC(=O)N2Cc3cnccc3CC[C@H]2C2CC2)C1=O [SYY-B136-1]
25 | 37 | CNC(=O)Nc1ccc2c(c1)CC[C@@]21OC(=O)N(CC(=O)N2Cc3ccc(F)cc3CC[C@@H]2C(F)(F)F)C1=O [SYY-B032-2]
26 | > 100 | CC(C)(N)C(=O)Nc1ccc2c(c1)CC[C@]21OC(=O)N(CC(=O)N2Cc3ccc(F)cc3CC[C@@H]2C2CC2)C1=O [SYY-B037-2]
27 | 4 | CNC(=O)Nc1ccc2c(c1)CC[C@@]21OC(=O)N(CC(=O)N2Cc3ccncc3CC[C@H]2C2CC2)C1=O [SYY-B097-2]
28 | < 20 | CNC(=O)Nc1ccc2c(c1)COCC21NC(=O)N(CC(=O)N2Cc3cc(F)ccc3OC[C@H]2C2CC2)C1=O (some centres unmarked) [SYY-B106]
29 | 230 | CNC(=O)Nc1ccc2c(c1)CC[C@]21OC(=O)N(CC(=O)N2Cc3cc(F)ccc3OC[C@@H]2C2CC2)C1=O [SYY-B030-1]
30 | < 10 | CNC(=O)Nc1ccc2c(c1)CCC21NC(=O)N(CC(=O)N2Cc3ccsc3OC[C@H]2C2CC2)C1=O (some centres unmarked) [SYY-B122]
31 | 8.9 | CNC(=O)Nc1ccc2c(c1)CC[C@]21OC(=O)N(CC(=O)N2Cc3cc(F)ccc3OC[C@H]2C(F)(F)F)C1=O [SYY-B057-1]
32 | > 50 | Cn1cc(-c2ccc3c(c2)CCC32NC(=O)N(CC(=O)N3Cc4ccc(F)cc4CC[C@@H]3C3CC3)C2=O)cn1 (some centres unmarked) [SYY-B044]
33 | < 10 | CNC(=O)Nc1ccc2c(c1)CCC21NC(=O)N(CC(=O)N2Cc3cc(F)c(F)cc3CC[C@H]2C2CC2)C1=O (some centres unmarked) [SYY-B088]
34 | < 20 | CNC(=O)Nc1ccc2c(c1)CCC21NC(=O)N(CC(=O)N2Cc3ccsc3CC[C@H]2C2CC2)C1=O (some centres unmarked) [SYY-B104]
35 | 55 | CNC(=O)Nc1ccc2c(c1)CC[C@@]21OC(=O)N(CC(=O)N2Cc3ccccc3CC[C@@H]2C(F)(F)F)C1=O [SYY-B028-2]
36 | 0.5 | CNC(=O)Nc1ccc2c(c1)CC[C@@]21OC(=O)N(CC(=O)N2Cc3sccc3CC[C@H]2C2CC2)C1=O [SYY-B126-2]
37 | 0.55 | CNC(=O)Nc1ccc2c(c1)CC[C@@]21OC(=O)N(CC(=O)N2Cc3ccsc3CC[C@H]2C2CC2)C1=O [SYY-B102-2]
38 | 180 | NC1(C(=O)Nc2ccc3c(c2)CC[C@]32OC(=O)N(CC(=O)N3Cc4ccc(F)cc4CC[C@@H]3C3CC3)C2=O)CC1 [SYY-B036-1]

Row | IC50 [nM] | Compound
39 | < 100 | Cn1cc(-c2cc3c(cn2)C2(CC3)NC(=O)N(CC(=O)N3Cc4cc(F)ccc4OC[C@H]3C(F)(F)F)C2=O)cn1 (some centres unmarked) [SYY-B161]
40 | 640 | CNC(=O)Nc1ccc2c(c1)CC[C@]21OC(=O)N(CC(=O)N2Cc3ccccc3CC[C@@H]2C2CC2)C1=O [SYY-B017-1]
41 | 1500 | NC1(C(=O)Nc2ccc3c(c2)CC[C@@]32OC(=O)N(CC(=O)N3Cc4ccc(F)cc4CC[C@@H]3C3CC3)C2=O)CC1 [SYY-B036-2]
42 | 230 | CNC(=O)Nc1ccc2c(c1)CC[C@@]21OC(=O)N(CC(=O)N2Cc3cc(F)ccc3OC[C@@H]2C2CC2)C1=O [SYY-B030-2]
43 | < 10 | CNC(=O)Nc1cc2c(cc1F)C1(CC2)NC(=O)N(CC(=O)N2Cc3ccc(F)cc3CC[C@H]2C2CC2)C1=O (some centres unmarked) [ZB-P-30]
44 | > 100 | CNC(=O)Nc1ccc2c(c1)CCC21NC(=O)N(CC(=O)N2Cc3ccc(F)cc3CC[C@@H]2C2CC2)C1=O (some centres unmarked) [SYY-B034]
45 | < 30 | CNC(=O)Nc1ccc2c(c1)OCC21NC(=O)N(CC(=O)N2Cc3cc(F)ccc3OC[C@H]2C2CC2)C1=O (some centres unmarked) [SYY-B156]
46 | 200 | CNC(=O)Nc1ccc2c(c1)CC[C@]21OC(=O)N(CC(=O)N2Cc3ccccc3CC[C@@H]2C(C)C)C1=O [SYY-B020-1]
47 | 12 | CNC(=O)Nc1ccc2c(c1)CC[C@@]21OC(=O)N(CC(=O)N2Cc3ccc(F)cc3CC[C@@H]2C)C1=O [SYY-B022-2]
48 | 2 | CNC(=O)Nc1ccc2c(c1)CC[C@@]21OC(=O)N(CC(=O)N2Cc3sc(C)c(C)c3CC[C@H]2C2CC2)C1=O [SYY-B116-2]
49 | 6.6 | CNC(=O)Nc1ccc2c(c1)CC[C@@]21OC(=O)N(CC(=O)N2Cc3sc(C)c(C)c3OC[C@H]2C2CC2)C1=O [SYY-B118-2]
50 | 22 | CNC(=O)Nc1ccc2c(c1)CC[C@]21OC(=O)N(CC(=O)N2Cc3ccc(F)cc3CC[C@@H]2C2CC2)C1=O [SYY-B026-1]
51 | < 20 | Cn1cc(-c2cnc3c(c2)CCC32NC(=O)N(CC(=O)N3Cc4cc(F)ccc4OC[C@H]3C(F)(F)F)C2=O)cn1 (some centres unmarked) [SYY-B163]
52 | < 10 | Cn1cc(-c2ccc3c(c2)S(=O)(=O)C[C@]32NC(=O)N(CC(=O)N3Cc4cc(F)ccc4OC[C@H]3C(F)(F)F)C2=O)cn1 [SYY-B130]
53 | < 50 | Cn1cc(-c2ccc3c(c2)CCC32OC(=O)N(CC(=O)N3Cc4sccc4OC[C@H]3C(F)(F)F)C2=O)cn1 (some centres unmarked) [SYY-B144]
54 | < 20 | Cn1cc(-c2ccc3c(n2)CCC32NC(=O)N(CC(=O)N3Cc4cc(F)ccc4OC[C@H]3C(F)(F)F)C2=O)cn1 (some centres unmarked) [SYY-B165]
55 | < 10 | CNC(=O)Nc1ccc2c(c1)CC[C@@]21OC(=O)N(CC(=O)N2Cc3cnccc3CC[C@H]2C2CC2)C1=O [SYY-B136-2]
56 | < 200 | CNC(=O)Nc1ccc2c(c1)CC[C@]21OC(=O)N(CC(=O)N2Cc3cccnc3CC[C@H]2C2CC2)C1=O [SYY-B081-1]
